Several values for one entry are separate records, joined by “and”; a condition that tells them apart may be missing. Equal entries are not always repeated.
Experiments:
Assay in all cases: Cell assay (liposome/EV binding, flow cytometry);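 for liposome binding, fluorescence signal (replicates): AF647 fluorescence intensity from 0.1 mol% AF647–PEG45–DSPE in liposomes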
[1] = target: T1, CHO cells expressing Siglec-6 mutants (C46A, C172A, R to A mutants, F93A, L95A, G175M) (Homo sapiens, UniProt O43699, C46A); assay type: cell-based; conditions: sheet Figure S26a, 3% GM3-DAG liposomes, C46A
T1 construct: These new CHO cell lines are the full-length versions of the Siglecs; expressed in transfected cells
T1 sequence (O43699 27-453 C46A): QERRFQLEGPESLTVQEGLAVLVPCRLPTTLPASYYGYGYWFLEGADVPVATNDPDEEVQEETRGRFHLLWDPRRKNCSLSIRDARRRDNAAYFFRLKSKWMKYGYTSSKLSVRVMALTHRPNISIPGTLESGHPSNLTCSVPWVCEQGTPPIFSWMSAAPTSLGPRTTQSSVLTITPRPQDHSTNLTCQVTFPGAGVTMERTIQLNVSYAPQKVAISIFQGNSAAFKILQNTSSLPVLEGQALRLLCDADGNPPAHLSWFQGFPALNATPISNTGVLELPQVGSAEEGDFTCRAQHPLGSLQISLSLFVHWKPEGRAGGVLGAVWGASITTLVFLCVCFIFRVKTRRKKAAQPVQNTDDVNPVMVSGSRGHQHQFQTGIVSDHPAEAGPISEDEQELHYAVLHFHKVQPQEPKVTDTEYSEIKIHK
Method: (§1) Mutations were introduced into each Siglec via gene overlap extension PCR mutagenesis (primers were ordered through IDT). Mutagenesis primers can be found in Supplementary Tables 2 and 3 for the critical arginine mutants of the entire Siglec family and the additional Siglec-6 mutants respectively.
(§2) 200,000 cells/well were plated into a 96-well U-bottom microplate and centrifuged at 300 × g for 5 min. The cells were then resuspended in 50 µL of 50 µM liposome/50 µg/mL (protein concentration) of EV solution in DMEM F12 5% FBS and incubated at 37 °C for 30 min. Excess liposomes were then removed via centrifuged at 300 × g for 5 min followed by washing the cells with FACS solution. The cells were then resuspended in (1:250 V/V) anti-Siglec-flow buffer (1% V/V FBS, 500 µM, EDTA Hank’s Balanced Salt Solution pH 7.4), solution and left to rest on ice for 30 min. The cells were then centrifuged again at 300 × g for 5 min and the cells were resuspended in FACS buffer solution and were then ready for analysis by flow cytometry. Information regarding antibody clone, catalog number supplier, label isotype, and dilution can be found in Supplementary Table 6. The Siglec-positive cells were gated on for liposome-binding analysis (Supplementary Fig. 1b).
(§3) Flow cytometry measurements were collected on a 5-laser Fortessa X-20 (BD Bioscience). All the resulting data were analyzed using FlowJo (10.5.3) software (BD Biosciences).

[2] = target: T2, CHO cells expressing Siglec-6 mutants (C46A, C172A, R to A mutants, F93A, L95A, G175M) (Homo sapiens, UniProt O43699, E173A); assay type: cell-based; conditions: sheet Figure S28b, 3% GM3-DAG liposomes, E173A
T2 construct: These new CHO cell lines are the full-length versions of the Siglecs; expressed in transfected cells
T2 sequence (O43699 27-453 E173A): as the sequence (O43699 27-453 C46A) above, with A20C, E147A counted along it
Method: as §1, §2, §3

[3] = target: T3, CHO cells expressing Siglec-6 mutants (C46A, C172A, R to A mutants, F93A, L95A, G175M) (Homo sapiens, UniProt O43699, E87A); assay type: cell-based; conditions: sheet Figure S28b, 3% GM3-DAG liposomes, E87A
T3 construct: These new CHO cell lines are the full-length versions of the Siglecs; expressed in transfected cells
T3 sequence (O43699 27-453 E87A): as the sequence (O43699 27-453 C46A) above, with A20C, E61A counted along it
Method: as §1, §2, §3

[4] = target: T4, CHO cells expressing Siglec-6 mutants (C46A, C172A, R to A mutants, F93A, L95A, G175M) (Homo sapiens, UniProt O43699, E88A); assay type: cell-based; conditions: sheet Figure S28b, 3% GM3-DAG liposomes, E88A
T4 construct: These new CHO cell lines are the full-length versions of the Siglecs; expressed in transfected cells
T4 sequence (O43699 27-453 E88A): as the sequence (O43699 27-453 C46A) above, with A20C, E62A counted along it
Method: as §1, §2, §3

[5] = target: T5, CHO cells expressing Siglec-6 mutants (C46A, C172A, R to A mutants, F93A, L95A, G175M) (Homo sapiens, UniProt O43699, F93A); assay type: cell-based; conditions: sheet Figure S28b, 3% GM3-DAG liposomes, F93A
T5 construct: These new CHO cell lines are the full-length versions of the Siglecs; expressed in transfected cells
T5 sequence (O43699 27-453 F93A): as the sequence (O43699 27-453 C46A) above, with A20C, F67A counted along it
Method: as §1, §2, §3

[6] = target: T6, CHO cells expressing Siglec-6 mutants (C46A, C172A, R to A mutants, F93A, L95A, G175M) (Homo sapiens, UniProt O43699, G175M); assay type: cell-based; conditions: sheet Figure S28b, 3% GM3-DAG liposomes, G175M
T6 construct: These new CHO cell lines are the full-length versions of the Siglecs; expressed in transfected cells
T6 sequence (O43699 27-453 G175M): as the sequence (O43699 27-453 C46A) above, with A20C, G149M counted along it
Method: as §1, §2, §3

[7] = target: T7, CHO cells expressing Siglec-6 mutants (C46A, C172A, R to A mutants, F93A, L95A, G175M) (Homo sapiens, UniProt O43699, L95A); assay type: cell-based; conditions: sheet Figure S28b, 3% GM3-DAG liposomes, L95A
T7 construct: These new CHO cell lines are the full-length versions of the Siglecs; expressed in transfected cells
T7 sequence (O43699 27-453 L95A): as the sequence (O43699 27-453 C46A) above, with A20C, L69A counted along it
Method: as §1, §2, §3

[8] = target: T8, CHO cells expressing Siglec-6 mutants (C46A, C172A, R to A mutants, F93A, L95A, G175M) (Homo sapiens, UniProt O43699, Q174A); assay type: cell-based; conditions: sheet Figure S28b, 3% GM3-DAG liposomes, Q174A
T8 construct: These new CHO cell lines are the full-length versions of the Siglecs; expressed in transfected cells
T8 sequence (O43699 27-453 Q174A): as the sequence (O43699 27-453 C46A) above, with A20C, Q148A counted along it
Method: as §1, §2, §3

[9] = target: T9, CHO cells expressing Siglec-6 mutants (C46A, C172A, R to A mutants, F93A, L95A, G175M) (Homo sapiens, UniProt O43699, R100A); assay type: cell-based; conditions: sheet Figure S26a, 3% GM3-DAG liposomes, R100A
T9 construct: These new CHO cell lines are the full-length versions of the Siglecs; expressed in transfected cells
T9 sequence (O43699 27-453 R100A): as the sequence (O43699 27-453 C46A) above, with A20C, R74A counted along it
Method: as §1, §2, §3

[10] = target: T10, CHO cells expressing Siglec-6 mutants (C46A, C172A, R to A mutants, F93A, L95A, G175M) (Homo sapiens, UniProt O43699, R101A); assay type: cell-based; conditions: sheet Figure S26a, 3% GM3-DAG liposomes, R101A
T10 construct: These new CHO cell lines are the full-length versions of the Siglecs; expressed in transfected cells
T10 sequence (O43699 27-453 R101A): as the sequence (O43699 27-453 C46A) above, with A20C, R75A counted along it
Method: as §1, §2, §3

[11] = target: T11, CHO cells expressing Siglec-6 mutants (C46A, C172A, R to A mutants, F93A, L95A, G175M) (Homo sapiens, UniProt O43699, R109A); assay type: cell-based; conditions: sheet Figure S26a, 3% GM3-DAG liposomes, R109A
T11 construct: These new CHO cell lines are the full-length versions of the Siglecs; expressed in transfected cells
T11 sequence (O43699 27-453 R109A): as the sequence (O43699 27-453 C46A) above, with A20C, R83A counted along it
Method: as §1, §2, §3

[12] = target: T12, CHO cells expressing Siglec-6 mutants (C46A, C172A, R to A mutants, F93A, L95A, G175M) (Homo sapiens, UniProt O43699, R112A); assay type: cell-based; conditions: sheet Figure S26a, 3% GM3-DAG liposomes, R112A
T12 construct: These new CHO cell lines are the full-length versions of the Siglecs; expressed in transfected cells
T12 sequence (O43699 27-453 R112A): as the sequence (O43699 27-453 C46A) above, with A20C, R86A counted along it
Method: as §1, §2, §3

[13] = target: T13, CHO cells expressing Siglec-6 mutants (C46A, C172A, R to A mutants, F93A, L95A, G175M) (Homo sapiens, UniProt O43699, R113A); assay type: cell-based; conditions: sheet Figure S26a, 3% GM3-DAG liposomes, R113A
T13 construct: These new CHO cell lines are the full-length versions of the Siglecs; expressed in transfected cells
T13 sequence (O43699 27-453 R113A): as the sequence (O43699 27-453 C46A) above, with A20C, R87A counted along it
Method: as §1, §2, §3

[14] = target: T14, CHO cells expressing Siglec-6 mutants (C46A, C172A, R to A mutants, F93A, L95A, G175M) (Homo sapiens, UniProt O43699, R147A); assay type: cell-based; conditions: sheet Figure S26a, 3% GM3-DAG liposomes, R147A
T14 construct: These new CHO cell lines are the full-length versions of the Siglecs; expressed in transfected cells
T14 sequence (O43699 27-453 R147A): as the sequence (O43699 27-453 C46A) above, with A20C, R121A counted along it
Method: as §1, §2, §3

[15] = target: T15, CHO cells expressing Siglec-6 mutants (C46A, C172A, R to A mutants, F93A, L95A, G175M) (Homo sapiens, UniProt O43699, R92A); assay type: cell-based; conditions: sheet Figure S26a, 3% GM3-DAG liposomes, R92A
T15 construct: These new CHO cell lines are the full-length versions of the Siglecs; expressed in transfected cells
T15 sequence (O43699 27-453 R92A): as the sequence (O43699 27-453 C46A) above, with A20C, R66A counted along it
Method: as §1, §2, §3

[16] = system: CHO cells expressing Siglec-6 mutants (C46A, C172A, R to A mutants, F93A, L95A, G175M); assay type: cell-based, human; conditions: cell assay
Method: as §1, §2, §3

liposome binding, fluorescence signal (replicates) [1] | liposome binding, fluorescence signal (replicates) [2] | liposome binding, fluorescence signal (replicates) [3] | liposome binding, fluorescence signal (replicates) [4] | liposome binding, fluorescence signal (replicates) [5] | liposome binding, fluorescence signal (replicates) [6] | liposome binding, fluorescence signal (replicates) [7] | liposome binding, fluorescence signal (replicates) [8] | liposome binding, fluorescence signal (replicates) [9] | liposome binding, fluorescence signal (replicates) [10] | liposome binding, fluorescence signal (replicates) [11] | liposome binding, fluorescence signal (replicates) [12] | liposome binding, fluorescence signal (replicates) [13] | liposome binding, fluorescence signal (replicates) [14] | liposome binding, fluorescence signal (replicates) [15] | Compound | 5 nGLL binding to C46A and C172A mutants of Siglec-6 [16] | 5 nGLL binding to F93A, L95A and G175M Siglec-6 mutants [16] | 5 nGLL binding to R109A and R114A Siglec-6 mutants [16] | 5 nGLL binding to R92A and R100A Siglec-6 mutants ([16]; both expressed at low levels)
789 and 784 and 873 and 937 | 1703 and 1773 and 1881 and 1652 | 2391 and 2152 and 2127 | 2063 and 2173 and 2053 | 1045 and 1034 and 1148 | 928 and 1026 and 962 and 868 | 497 and 522 and 557 and 567 | 1364 and 1584 and 1412 | 2485 and 2181 and 2573 and 2894 | 5191 and 3671 and 4272 and 5125 | 3678 and 3427 and 3246 and 4185 | 4575 and 4566 and 3393 and 4882 | 4924 and 3926 and 3532 and 5592 | 10179 and 9364 and 9449 and 10723 | 242 and 228 and 244 and 252 | CCCCCCCCCCCCCCCCOCC(COCCCCCCCCCCCCCCCC)OCc1cn(CCO[C@@H]2O[C@H](CO)[C@@H](O[C@@H]3O[C@H](CO)[C@H](O)[C@H](O[C@]4(C(=O)O)C[C@H](O)[C@@H](NC(C)=O)[C@H]([C@H](O)[C@H](O)CO)O4)[C@H]3O)[C@H](O)[C@H]2O)nn1 [GM3-DAG] | – | – | – | –
– | – | – | – | – | – | – | – | – | – | – | – | – | – | – | CCCCCCCCCCCCCCCCOCC(COCCCCCCCCCCCCCCCC)OCc1cn(CCO[C@@H]2O[C@H](CO)[C@@H](O[C@@H]3O[C@H](CO)[C@H](O)[C@H](O[C@]4(C(=O)O)C[C@H](O)[C@@H](NC(C)=O)[C@H]([C@H](O)[C@H](O)CO)O4)[C@H]3O)[C@H](O)[C@H]2O)nn1 [nGL 5] | did not recognize | significantly decreased binding | modest reduction in binding | more pronounced reduction in binding

Reference: publication PMC10122656, “Siglec-6 mediates the uptake of extracellular vesicles through a noncanonical glycolipid binding pocket” (Nature Communications, 2023)
